The text below walks through data of ChEMBL document CHEMBL6096717, “Novel 3-Pyrrolidineindole Derivatives as Serotonergic Psychedelic Agents for Treating Psychosis and Mental Illnesses Such as Depression and Post-Traumatic Stress Disorder” (ACS Med Chem Lett, 2025).

A word on the IC50: it is the concentration that inhibits the measured activity by half.

For this assay, the target named is 5-hydroxytryptamine receptor 2A (Homo sapiens, UniProt P28223). The experiment in a line: Displacement of [3H]-ketanserin from human 5HT2A receptor incubated for 90 mins by Microbeta2 scintillation counting analysis. On the technique in general: Loss of bound radioactivity is the signal in a displacement assay; it reports binding, not function.
5-hydroxytryptamine receptor 2A, sequence (P28223 whole entry): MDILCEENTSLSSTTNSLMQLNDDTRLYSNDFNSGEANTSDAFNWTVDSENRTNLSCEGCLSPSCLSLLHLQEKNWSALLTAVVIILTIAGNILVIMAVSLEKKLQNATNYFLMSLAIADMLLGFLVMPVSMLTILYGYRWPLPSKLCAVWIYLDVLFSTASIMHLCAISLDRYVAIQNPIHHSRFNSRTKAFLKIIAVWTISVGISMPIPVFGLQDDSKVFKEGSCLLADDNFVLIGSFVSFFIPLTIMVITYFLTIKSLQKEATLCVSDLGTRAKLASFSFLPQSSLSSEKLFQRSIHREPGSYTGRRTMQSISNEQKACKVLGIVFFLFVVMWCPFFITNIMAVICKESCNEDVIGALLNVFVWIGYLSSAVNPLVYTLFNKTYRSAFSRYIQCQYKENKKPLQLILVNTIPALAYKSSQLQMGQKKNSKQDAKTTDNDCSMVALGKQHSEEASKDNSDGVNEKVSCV
Consider `[2H]C([2H])(c1c[nH]c2cccc(O)c12)[C@H]1CCCN1C([2H])([2H])[2H]`, for which the IC50 was less than 500 nM.

In the case of `[2H]C([2H])([2H])N1CCC[C@@H]1Cc1c[nH]c2cccc(O)c12`, the IC50 was less than 500 nM.

For the molecule `[2H]C([2H])([2H])N1CCC[C@@H]1Cc1c[nH]c2cccc(F)c12`, the IC50 was less than 500 nM.

In turn, `[2H]C([2H])([2H])N1CCC[C@@H]1Cc1c[nH]c2cccc(OC(=O)CCCCCCC/C=C\C/C=C\CCCC)c12` had an IC50 of less than 500 nM.

Consider `[2H]C([2H])(c1c[nH]c2cccc(OC(=O)CCCCCCC/C=C\C/C=C\CCCC)c12)[C@H]1CCCN1C([2H])([2H])[2H]`, for which the IC50 is less than 500 nM.

As to `[2H]C([2H])(c1c[nH]c2cccc(Cl)c12)[C@H]1CCCN1C([2H])([2H])[2H]`, the IC50 was less than 500 nM.
